How the values were obtained:
[1] = target: Poly [ADP-ribose] polymerase 2 (Homo sapiens, UniProt Q9UGN5); assay: Inhibition of N-terminal his-tagged human PARP2 expressed in Escherichia coli Rosette2 (DE3)
[2] = target: T1, Protein mono-ADP-ribosyltransferase PARP10 (Homo sapiens, UniProt Q53GL7); assay: Inhibition of C-terminal his-tagged human PARP10 expressed in Escherichia coli Rosette2 (DE3)
T1 sequence (Q53GL7 whole entry): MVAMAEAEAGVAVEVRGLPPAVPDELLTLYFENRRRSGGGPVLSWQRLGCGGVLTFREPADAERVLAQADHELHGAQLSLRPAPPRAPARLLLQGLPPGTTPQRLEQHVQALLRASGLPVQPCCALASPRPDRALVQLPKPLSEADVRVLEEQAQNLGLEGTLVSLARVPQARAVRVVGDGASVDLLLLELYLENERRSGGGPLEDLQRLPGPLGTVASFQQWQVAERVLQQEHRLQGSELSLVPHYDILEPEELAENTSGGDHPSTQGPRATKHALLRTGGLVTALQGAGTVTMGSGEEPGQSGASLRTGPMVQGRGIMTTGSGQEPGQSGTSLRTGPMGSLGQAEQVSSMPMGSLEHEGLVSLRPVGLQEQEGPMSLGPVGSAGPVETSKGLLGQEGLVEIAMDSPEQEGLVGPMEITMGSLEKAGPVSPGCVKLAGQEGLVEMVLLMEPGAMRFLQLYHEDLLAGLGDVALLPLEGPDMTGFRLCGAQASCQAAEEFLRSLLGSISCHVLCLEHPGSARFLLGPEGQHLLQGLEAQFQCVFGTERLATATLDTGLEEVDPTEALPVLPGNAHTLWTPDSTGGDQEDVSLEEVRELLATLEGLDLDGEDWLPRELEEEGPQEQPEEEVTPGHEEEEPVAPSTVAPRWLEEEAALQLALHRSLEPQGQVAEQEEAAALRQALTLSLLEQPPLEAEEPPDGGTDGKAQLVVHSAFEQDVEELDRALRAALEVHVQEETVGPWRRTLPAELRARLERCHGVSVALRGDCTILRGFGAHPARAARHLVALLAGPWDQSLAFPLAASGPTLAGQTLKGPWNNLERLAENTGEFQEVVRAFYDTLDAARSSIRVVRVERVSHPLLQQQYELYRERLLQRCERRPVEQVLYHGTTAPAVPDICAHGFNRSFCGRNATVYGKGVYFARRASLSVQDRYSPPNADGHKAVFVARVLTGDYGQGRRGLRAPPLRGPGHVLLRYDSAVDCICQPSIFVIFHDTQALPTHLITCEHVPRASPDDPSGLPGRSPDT

[3] = target: Protein mono-ADP-ribosyltransferase PARP14 (Homo sapiens, UniProt Q460N5); assay: Inhibition of N-terminal his-tagged human PARP14 expressed in Escherichia coli Rosette2 (DE3)
[4] = target: Poly [ADP-ribose] polymerase 1 (Homo sapiens, UniProt P09874); assay: Inhibition of N-terminal his-tagged human PARP1 expressed in Escherichia coli Rosette2 (DE3)
[5] = target: T2, Poly [ADP-ribose] polymerase tankyrase-2 (Homo sapiens, UniProt Q9H2K2); assay: Inhibition of N-terminal his-tagged human TNKS2 expressed in Escherichia coli Rosette2 (DE3)
T2 sequence (Q9H2K2 whole entry): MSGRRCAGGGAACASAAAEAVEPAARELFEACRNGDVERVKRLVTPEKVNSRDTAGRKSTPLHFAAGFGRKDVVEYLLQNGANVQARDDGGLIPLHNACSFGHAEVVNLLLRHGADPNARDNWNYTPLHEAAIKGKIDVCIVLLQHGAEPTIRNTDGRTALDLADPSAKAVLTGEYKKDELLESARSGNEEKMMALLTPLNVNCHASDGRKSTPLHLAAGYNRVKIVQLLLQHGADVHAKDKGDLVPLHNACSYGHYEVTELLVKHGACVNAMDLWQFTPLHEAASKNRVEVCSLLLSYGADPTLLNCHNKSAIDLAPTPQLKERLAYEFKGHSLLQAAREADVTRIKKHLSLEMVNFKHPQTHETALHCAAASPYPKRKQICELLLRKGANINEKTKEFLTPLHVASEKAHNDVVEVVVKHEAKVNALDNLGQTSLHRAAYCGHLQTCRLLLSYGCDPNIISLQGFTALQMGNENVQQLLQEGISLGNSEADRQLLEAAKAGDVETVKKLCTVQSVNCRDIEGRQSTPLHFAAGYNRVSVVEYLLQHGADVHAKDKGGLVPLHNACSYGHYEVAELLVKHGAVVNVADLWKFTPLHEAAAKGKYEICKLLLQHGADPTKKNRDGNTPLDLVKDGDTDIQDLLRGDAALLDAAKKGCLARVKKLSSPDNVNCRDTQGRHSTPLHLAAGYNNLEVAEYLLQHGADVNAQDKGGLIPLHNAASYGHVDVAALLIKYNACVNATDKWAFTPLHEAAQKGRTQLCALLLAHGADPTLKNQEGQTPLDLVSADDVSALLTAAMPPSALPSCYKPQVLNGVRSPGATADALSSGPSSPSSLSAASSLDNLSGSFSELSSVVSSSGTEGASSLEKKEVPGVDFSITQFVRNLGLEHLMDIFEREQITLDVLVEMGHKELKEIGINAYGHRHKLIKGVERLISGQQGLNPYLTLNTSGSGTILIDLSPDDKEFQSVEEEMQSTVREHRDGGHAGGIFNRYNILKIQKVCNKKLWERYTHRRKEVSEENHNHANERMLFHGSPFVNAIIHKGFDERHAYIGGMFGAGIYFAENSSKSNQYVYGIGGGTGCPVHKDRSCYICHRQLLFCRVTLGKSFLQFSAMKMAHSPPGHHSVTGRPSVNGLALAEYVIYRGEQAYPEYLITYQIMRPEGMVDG

HeLa = assay: Cytoprotective activity against human HeLa cells assessed as rescue of PARP10-induced cell death by measuring number of colonies treated for 8 to 10 days followed by compound replenishment for every 3 days by methylene blue staining based assay; format: functional

Chain of Poly [ADP-ribose] polymerase 2 (Q9UGN5 whole entry): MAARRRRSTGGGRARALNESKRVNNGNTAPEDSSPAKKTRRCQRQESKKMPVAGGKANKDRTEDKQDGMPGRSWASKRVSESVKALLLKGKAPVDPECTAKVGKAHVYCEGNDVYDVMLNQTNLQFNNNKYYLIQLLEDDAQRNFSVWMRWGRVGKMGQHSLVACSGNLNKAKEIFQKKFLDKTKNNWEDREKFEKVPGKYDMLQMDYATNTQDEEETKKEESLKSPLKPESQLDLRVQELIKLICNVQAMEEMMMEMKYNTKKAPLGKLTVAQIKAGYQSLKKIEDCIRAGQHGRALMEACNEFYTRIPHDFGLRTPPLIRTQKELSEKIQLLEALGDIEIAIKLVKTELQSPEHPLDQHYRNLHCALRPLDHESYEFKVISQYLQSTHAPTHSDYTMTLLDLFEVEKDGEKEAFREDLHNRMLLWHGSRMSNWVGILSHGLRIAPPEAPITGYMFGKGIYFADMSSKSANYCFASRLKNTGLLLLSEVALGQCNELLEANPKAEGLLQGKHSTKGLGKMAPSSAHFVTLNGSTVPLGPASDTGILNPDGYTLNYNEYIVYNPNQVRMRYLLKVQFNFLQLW
Chain of Poly [ADP-ribose] polymerase 1 (P09874 whole entry): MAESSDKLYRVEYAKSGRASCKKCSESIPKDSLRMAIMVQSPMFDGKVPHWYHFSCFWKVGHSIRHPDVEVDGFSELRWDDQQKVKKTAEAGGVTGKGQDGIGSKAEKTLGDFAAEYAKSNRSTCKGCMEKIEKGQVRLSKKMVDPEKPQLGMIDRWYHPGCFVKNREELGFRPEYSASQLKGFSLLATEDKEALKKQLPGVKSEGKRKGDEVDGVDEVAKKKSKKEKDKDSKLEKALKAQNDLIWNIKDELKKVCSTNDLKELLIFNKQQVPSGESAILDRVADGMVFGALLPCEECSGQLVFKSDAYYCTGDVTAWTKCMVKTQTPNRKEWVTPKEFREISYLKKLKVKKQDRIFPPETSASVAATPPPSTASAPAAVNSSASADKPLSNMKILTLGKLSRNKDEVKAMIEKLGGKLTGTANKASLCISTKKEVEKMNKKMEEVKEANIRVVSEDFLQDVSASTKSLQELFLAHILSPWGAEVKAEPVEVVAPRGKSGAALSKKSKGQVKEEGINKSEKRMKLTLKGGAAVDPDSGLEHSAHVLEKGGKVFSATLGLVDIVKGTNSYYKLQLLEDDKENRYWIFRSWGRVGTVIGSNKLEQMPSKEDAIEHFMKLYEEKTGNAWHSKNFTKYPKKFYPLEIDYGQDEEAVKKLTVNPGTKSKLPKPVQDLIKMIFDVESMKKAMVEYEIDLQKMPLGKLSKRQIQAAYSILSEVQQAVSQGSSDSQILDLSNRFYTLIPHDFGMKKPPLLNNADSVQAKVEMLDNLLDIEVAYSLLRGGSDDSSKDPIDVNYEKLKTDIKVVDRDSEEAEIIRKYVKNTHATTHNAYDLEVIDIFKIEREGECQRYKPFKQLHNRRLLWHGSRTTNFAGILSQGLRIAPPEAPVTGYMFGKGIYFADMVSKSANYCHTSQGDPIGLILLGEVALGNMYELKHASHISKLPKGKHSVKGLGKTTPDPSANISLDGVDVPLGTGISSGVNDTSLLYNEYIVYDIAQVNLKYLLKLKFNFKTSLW
Chain of Protein mono-ADP-ribosyltransferase PARP14 (Q460N5 whole entry): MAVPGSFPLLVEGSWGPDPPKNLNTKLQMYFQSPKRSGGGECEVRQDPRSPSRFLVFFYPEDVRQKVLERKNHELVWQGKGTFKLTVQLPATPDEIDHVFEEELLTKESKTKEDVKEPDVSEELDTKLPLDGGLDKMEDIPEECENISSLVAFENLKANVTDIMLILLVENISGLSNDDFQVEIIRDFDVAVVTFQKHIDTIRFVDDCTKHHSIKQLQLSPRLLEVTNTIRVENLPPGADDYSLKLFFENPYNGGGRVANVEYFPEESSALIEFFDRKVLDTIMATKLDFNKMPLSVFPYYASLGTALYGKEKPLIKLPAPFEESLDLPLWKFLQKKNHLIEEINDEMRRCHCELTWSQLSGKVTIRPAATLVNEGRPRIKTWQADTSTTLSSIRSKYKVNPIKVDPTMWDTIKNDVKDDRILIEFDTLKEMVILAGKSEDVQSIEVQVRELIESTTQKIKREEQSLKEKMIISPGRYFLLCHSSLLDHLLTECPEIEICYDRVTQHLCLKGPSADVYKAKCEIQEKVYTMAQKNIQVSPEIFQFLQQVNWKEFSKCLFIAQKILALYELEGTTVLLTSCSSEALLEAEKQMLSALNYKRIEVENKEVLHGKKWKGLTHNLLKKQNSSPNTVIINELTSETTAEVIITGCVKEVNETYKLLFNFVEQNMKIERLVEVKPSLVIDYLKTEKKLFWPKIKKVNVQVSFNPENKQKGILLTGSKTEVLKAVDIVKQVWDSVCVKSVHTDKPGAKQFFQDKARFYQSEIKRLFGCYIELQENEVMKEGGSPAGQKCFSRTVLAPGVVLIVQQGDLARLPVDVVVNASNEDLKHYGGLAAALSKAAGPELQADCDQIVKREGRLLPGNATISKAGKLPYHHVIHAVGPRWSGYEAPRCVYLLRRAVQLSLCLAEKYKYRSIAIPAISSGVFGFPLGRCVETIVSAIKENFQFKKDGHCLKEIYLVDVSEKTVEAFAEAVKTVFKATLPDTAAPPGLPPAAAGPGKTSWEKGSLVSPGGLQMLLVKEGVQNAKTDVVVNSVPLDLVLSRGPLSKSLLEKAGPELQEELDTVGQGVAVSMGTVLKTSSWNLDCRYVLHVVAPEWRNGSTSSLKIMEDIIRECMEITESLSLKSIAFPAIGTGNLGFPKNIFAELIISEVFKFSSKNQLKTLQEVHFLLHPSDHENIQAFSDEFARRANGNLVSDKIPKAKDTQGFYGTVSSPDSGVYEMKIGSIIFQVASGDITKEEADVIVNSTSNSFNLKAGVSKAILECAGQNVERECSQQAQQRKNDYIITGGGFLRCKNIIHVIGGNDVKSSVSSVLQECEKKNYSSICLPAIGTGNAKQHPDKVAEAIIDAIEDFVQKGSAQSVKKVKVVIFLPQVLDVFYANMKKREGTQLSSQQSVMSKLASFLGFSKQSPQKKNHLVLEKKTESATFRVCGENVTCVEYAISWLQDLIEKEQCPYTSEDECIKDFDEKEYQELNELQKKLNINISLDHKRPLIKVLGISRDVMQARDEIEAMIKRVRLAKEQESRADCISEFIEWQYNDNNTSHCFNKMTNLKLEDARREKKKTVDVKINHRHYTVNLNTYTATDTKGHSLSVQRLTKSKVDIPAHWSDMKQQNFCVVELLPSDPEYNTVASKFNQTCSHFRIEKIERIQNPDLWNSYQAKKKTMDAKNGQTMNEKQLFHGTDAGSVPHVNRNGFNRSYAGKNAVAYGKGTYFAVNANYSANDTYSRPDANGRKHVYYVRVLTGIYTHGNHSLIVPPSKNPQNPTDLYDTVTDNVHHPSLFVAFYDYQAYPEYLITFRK

Compound: NC(=O)c1ccc(Oc2cccc(C(N)=O)c2)cc1
- IC50 [1]: 1.7 µM
- IC50 [2]: 0.48 µM
- IC50 [3]: 41 µM
- IC50 [4]: > 100 µM
- IC50 [5]: 6.5 µM
- IC50 (HeLa): 1.8 µM

Compound: N#Cc1ccc(Oc2ccc(C(N)=O)cc2)cc1
- IC50 [1]: 27 µM
- IC50 [2]: 3.64 µM
- IC50 [3]: > 100 µM
- IC50 [4]: > 100 µM
- IC50 [5]: > 100 µM
- IC50 (HeLa): 1.7 µM

Source: ChEMBL document CHEMBL5120882, “Medicinal Chemistry Perspective on Targeting Mono-ADP-Ribosylating PARPs with Small Molecules” (J Med Chem, 2022)
